Source: ChEMBL document CHEMBL1133303, “Molecular topology: a useful tool for the search of new antibacterials” (2000)
Converted amounts (≈) assume the structure as drawn. Values belong to the compound of their own block, whether it stands above or below them.

Legend:
Assay type in all cases: functional
[1] = test system: Staphylococcus aureus; experiment: Minimum Inhibitory concentration against Staphylococcus aureus (CECT240)
[2] = test system: Pseudomonas aeruginosa; experiment: Minimum inhibitory concentration against Pseudomonas aeruginosa (CECT108)
[3] = test system: Proteus mirabilis; experiment: Minimum inhibitory concentration against Proteus mirabilis (CECT170)
[4] = test system: Escherichia coli; experiment: Minimum inhibitory concentration against Escherichia coli (CECT405)

Compound: CC(=O)Nc1cc(C)cc(/N=N/c2cc([N+](=O)[O-])cc([N+](=O)[O-])c2O)c1O
MIC90 [1]: 130 µg/mL (≈ 346 µM)
MIC90 [2]: 130 µg/mL (≈ 346 µM)
MIC90 [3]: 130 µg/mL (≈ 346 µM)
MIC90 [4]: 130 µg/mL (≈ 346 µM)

Compound: COc1ccc([C@@H]2CC(=O)c3c(O)cc(O[C@@H]4O[C@H](CO[C@@H]5O[C@@H](C)[C@H](O)[C@@H](O)[C@H]5O)[C@@H](O)[C@H](O)[C@H]4O)cc3O2)cc1O [HESPERIDIN]
MIC90 [1]: 8 µg/mL (≈ 13.1 µM)
MIC90 [2]: 25 µg/mL (≈ 40.9 µM)

Compound: O=c1c(O)c(-c2ccc(O)cc2O)oc2cc(O)cc(O)c12 [MORIN]
MIC90 [1]: 120 µg/mL (≈ 397 µM)
MIC90 [2]: 120 µg/mL (≈ 397 µM)
MIC90 [3]: 120 µg/mL (≈ 397 µM)
MIC90 [4]: 1380 µg/mL (≈ 4570 µM)

Compound: COc1ccc([C@@H]2CC(=O)c3c(O)cc(O[C@@H]4O[C@H](CO)[C@@H](O)[C@H](O)[C@H]4O[C@@H]4O[C@@H](C)[C@H](O)[C@@H](O)[C@H]4O)cc3O2)cc1O [NEOHESPERIDIN]
MIC90 [1]: 300 µg/mL (≈ 491 µM)
MIC90 [2]: 300 µg/mL (≈ 491 µM)
MIC90 [3]: 300 µg/mL (≈ 491 µM)
MIC90 [4]: 300 µg/mL (≈ 491 µM)

Compound: SILYMARIN
MIC90 [1]: 80 µg/mL
MIC90 [2]: 200 µg/mL
MIC90 [3]: 700 µg/mL

The remaining compounds from weak to strong by MIC90 [1], led by results:

MIC90 [1]: 1450 µg/mL (≈ 3920 µM)
MIC90 [2]: 1450 µg/mL (≈ 3920 µM)
MIC90 [3]: 1450 µg/mL (≈ 3920 µM)
MIC90 [4]: 1450 µg/mL (≈ 3920 µM)
Compound: COc1cc2ccc(=O)oc2c(O[C@@H]2O[C@H](CO)[C@@H](O)[C@H](O)[C@H]2O)c1O [FRAXINE]

MIC90 [1]: 160 µg/mL (≈ 567 µM)
MIC90 [3]: 1800 µg/mL (≈ 6380 µM)
MIC90 [4]: 1800 µg/mL (≈ 6380 µM)
Compound: O=C(O)c1cccnc1Nc1cccc(C(F)(F)F)c1 [NIFLUMIC ACID]

MIC90 [1]: 100 µg/mL (≈ 309 µM)
MIC90 [2]: 100 µg/mL (≈ 309 µM)
MIC90 [3]: 100 µg/mL (≈ 309 µM)
MIC90 [4]: 10 µg/mL (≈ 30.9 µM)
Compound: O=C(N[C@H](CO)[C@H](O)c1ccc([N+](=O)[O-])cc1)C(Cl)Cl [CHLORAMPHENICOL]
